Data on 16 molecules can be found in patent US20260356824A1, “COMPOUNDS FOR TREATING FIBROTIC DISEASES” (Meta-Immue Inc., priority 2023, published 2026).

Series [1] can be described thus: Liver microsomal stability, human. The class given is in vitro ADME. The conditions noted are these: human liver microsomes; 30 min; percent of parent remaining; read-out: Liver Microsomal stability (%), % of remaining after 30 min, Human.
A further series has as its target T1, hLPAR1 (Homo sapiens, UniProt Q92633).
T1 construct: expressed in transfected cells
Description: Ca2+ Flux Assay (B103 cells stably expressing hLPAR1). In kind it is cell-based. The conditions noted are these: LPA-induced calcium release, Fura-2 AM, compound 20 min at RT. In short, it runs like this:
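Fura-2 AM (5 μM) loaded 40 min at RT in HBSS/20 mM HEPES/probenecid/0.3% fatty-acid-free BSA after 2 h serum starvation. Compounds preincubated 20 min at RT, then LPA […] added. Intracellular calcium mobilization read as fluorescence intensity.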
On the technique in general: A change in cytosolic calcium serves as a functional read-out for many receptors and channels.

For the next series, the target named is T2, BSEP (Homo sapiens, UniProt O95342).
T2 construct: ATP-dependent uptake of radiolabelled probe substrate
Description: Bile Salt Export Pump (BSEP) Assay, Sf9 insect cell vesicles expressing BSEP. The class given is in vitro ADME. The conditions noted are these: 10 μM test compound, probe substrate 1 μM [3H]-taurocholic acid, 15 min incubation. As to the method: • 1. A stock solution was prepared with the test article (Sponsor compound) in DMSO. • 2. All final assay solutions of probe substrate, reference inhibitor or test article contain 0.5% (v/v) DMSO (vehicle control). • 3. Test article concentrations in transport study were specified in the Summary Table of Experimental Conditions of this protocol.
• 1. Bovine Serum Albumin (BSA) • 2. Dimethyl sulfoxide (DMSO) • 3. BSEP Assay Uptake Buffer (10 mM HEPES-Tris pH 7.4, 0.1 M KNO3, 12.5 mM Mg(NO3)2, 50 mM sucrose) • 4. BSEP Wash Buffer (10 mM Tris-HCl pH 7.4, 0.1 M KNO3, 50 mM sucrose) • 5. BSEP Blocking Buffer (BSEP Wash Buffer+0.5 mg/mL BSA) • 6. 25 mM Mg-ATP solution • 7. 25 mM AMP solution • 8. Corning Costar 96-well flat-bottom, untreated, white Assay Plate (Corning Cat. No. 3912) • 9. Millipore MultiscreenHTs Filtration Plate, glass fiber FB—1.0/0.65 μm (Cat. No. MSFBN6B10 or glass fiber FC—1.2/0.65 μm (Cat. No. MSFCN6B10) • 10. Millipore MultiscreenHTS Vacuum Manifold (Cat. No. MSVMHTS00) • 11. Probe substrates listed in Table 1 • 12. Reference inhibitors listed in Table 1 • 13. Test articles
• 1. Test system: • a. 96-well flat bottom plate containing a suspension of vesicles and a corresponding 96-well glass fiber filtration plate. • b. Transport experiments were conducted in the Assay Uptake Buffer. • c. Transport experiment was initiated with the addition of Mg-ATP or AMP to appropriate wells. • d. Each condition was run in triplicate wells. • 2. Prepared the 96-well flat-bottom assay plate. • a. Incubated the assay plate with the Blocking Buffer for 60 min at 37 °C with orbital shaking at approximately 90 rpm. (NOTE: This is done to prevent non-specific binding of vesicles to polystyrene assay plate). • b. After 60 min, completely removed the Blocking Buffer from the assay plate. • c. The Assay Uptake Buffer solutions were added to the assay plate wells as follows: • i. For probe substrate transport assays, the Assay Uptake Buffer contained vesicles and the probe substrate at the specified concentration. • ii. For the reference inhibition assay, the Assay Uptake Buffer contained vesicles, the reference inhibitor and the probe substrate at the specified concentration in Table 1. • iii. For the test article assays, Assay Uptake Buffer contained vesicles, the test article and the probe substrate at the specified concentration in Table 1. • 3. Incubate at 37 °C with orbital shaking at approximately 90 rpm for the time period specified in Table 1 of this protocol. • 4. Using the 25 mM Mg-ATP or AMP stocks, Mg-ATP or AMP was added to test wells of flat bottom assay plate to a final concentration of 5 mM. • 5. Incubated at 37 °C with orbital shaking at approximately 90 rpm for the incubation time specified in Table 1 of this protocol. • 6. Prepared the 96-well glass fiber filtration plate: • a. Incubated the filtration plate with the Blocking Buffer for 2 min at room temperature with under no vacuum. • b. Turned on vacuum and allowed Blocking Buffer to filter through plate. • c. With vacuum on, filter plate was washed with ice cold Wash Buffer. • 7. At the end of the specified incubation time indicated in […] of this protocol, vesicle transport was quenched by adding ice cold Wash Buffer to samples in 96-well assay plate. • 8. Mixed assay samples (now diluted in Wash Buffer) with pipette and transfered 175 μL into the 96-well glass fiber filtration plate to separate vesicles from buffer by applying vacuum. • 9. Washed filter plate wells with ice cold Wash Buffer. • 10. Allowed filter plate to dry under vacuum. • 11. Transfered filters to scintillation sample plate and added 700 μL of scintillation fluid to the above samples. • 12. Counted the above samples on a 1450 Microbeta (Perkin-Elmer).
• 1. The amount of substrate was quantified with radiometric detection on a 1450 Microbeta (Perkin-Elmer). • 2. For transport study samples run in triplicate, the mean and standard deviation of the replicates were reported. • 3. […]

Series [2] in a line: Liver microsomal stability, rat. In kind it is in vitro ADME. The conditions noted are these: rat liver microsomes; 30 min; percent of parent remaining; read-out: Liver Microsomal stability (%), % of remaining after 30 min, Rat.
A further series concerns A2058 cells. Description: Chemotaxis Assay (LPA-induced migration of A2058 cells). Particulars: Homo sapiens, 4 to 8 hours, crystal violet 590 nm. In kind it is cell-based. The essentials: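 A2058 cells, starved 24 hr and treated with test compound or vehicle, were placed on a fibronectin-coated membrane ([…]) above […] in DMEM. After 4–8 h migration, migrated cells were crystal violet stained and read at 590 nm. Values are relative percentage of control.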

Molecules are shown by their SMILES.

T1 sequence (Q92633 whole entry): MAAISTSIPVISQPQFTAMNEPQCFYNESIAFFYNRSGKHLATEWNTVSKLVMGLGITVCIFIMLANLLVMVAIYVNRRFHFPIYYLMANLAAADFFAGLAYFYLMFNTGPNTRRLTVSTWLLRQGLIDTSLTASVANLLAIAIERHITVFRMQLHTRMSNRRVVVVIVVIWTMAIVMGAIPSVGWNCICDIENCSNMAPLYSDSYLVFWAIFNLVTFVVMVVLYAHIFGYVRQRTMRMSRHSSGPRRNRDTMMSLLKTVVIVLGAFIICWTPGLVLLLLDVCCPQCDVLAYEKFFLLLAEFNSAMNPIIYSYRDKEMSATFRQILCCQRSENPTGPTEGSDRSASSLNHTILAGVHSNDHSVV
T2 sequence (O95342 whole entry): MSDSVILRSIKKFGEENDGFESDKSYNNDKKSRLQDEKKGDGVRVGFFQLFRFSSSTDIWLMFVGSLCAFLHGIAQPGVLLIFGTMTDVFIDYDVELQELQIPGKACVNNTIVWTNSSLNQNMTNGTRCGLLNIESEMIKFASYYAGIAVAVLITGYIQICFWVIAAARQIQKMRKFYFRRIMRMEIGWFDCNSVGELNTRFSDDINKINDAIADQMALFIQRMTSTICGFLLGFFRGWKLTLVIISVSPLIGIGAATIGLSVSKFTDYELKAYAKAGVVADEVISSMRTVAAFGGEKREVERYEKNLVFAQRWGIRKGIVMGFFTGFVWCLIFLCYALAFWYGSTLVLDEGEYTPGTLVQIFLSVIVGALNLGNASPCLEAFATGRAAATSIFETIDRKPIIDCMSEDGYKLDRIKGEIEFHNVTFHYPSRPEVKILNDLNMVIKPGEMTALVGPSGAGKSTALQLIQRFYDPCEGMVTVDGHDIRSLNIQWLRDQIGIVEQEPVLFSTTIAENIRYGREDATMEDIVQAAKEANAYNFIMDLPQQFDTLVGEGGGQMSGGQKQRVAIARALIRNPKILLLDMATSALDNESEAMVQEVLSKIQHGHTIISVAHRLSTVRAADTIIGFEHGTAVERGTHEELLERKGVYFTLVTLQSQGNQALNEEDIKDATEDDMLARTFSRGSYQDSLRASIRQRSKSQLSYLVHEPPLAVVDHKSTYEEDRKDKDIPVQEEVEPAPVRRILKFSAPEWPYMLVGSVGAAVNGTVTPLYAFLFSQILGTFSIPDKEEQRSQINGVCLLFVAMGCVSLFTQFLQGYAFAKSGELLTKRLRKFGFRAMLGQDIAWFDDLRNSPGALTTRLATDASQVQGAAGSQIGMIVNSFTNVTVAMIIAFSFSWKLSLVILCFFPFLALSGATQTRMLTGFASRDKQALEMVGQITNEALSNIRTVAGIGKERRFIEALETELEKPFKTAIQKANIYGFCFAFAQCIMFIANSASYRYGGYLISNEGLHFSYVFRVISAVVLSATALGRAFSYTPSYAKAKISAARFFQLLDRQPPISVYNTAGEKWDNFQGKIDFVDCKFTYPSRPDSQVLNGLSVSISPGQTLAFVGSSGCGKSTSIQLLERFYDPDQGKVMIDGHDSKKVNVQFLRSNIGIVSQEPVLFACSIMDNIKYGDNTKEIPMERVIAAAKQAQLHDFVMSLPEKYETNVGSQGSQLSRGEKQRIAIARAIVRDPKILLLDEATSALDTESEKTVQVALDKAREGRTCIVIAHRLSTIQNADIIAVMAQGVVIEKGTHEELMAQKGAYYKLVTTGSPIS

Regarding `Cc1noc(C2CN(c3ccc(C4(C(=O)O)CC4)cc3)C2)c1NC(=O)O[C@H](C)c1ccccc1` [Compound 23, (R)-1-(4-(3-(3-methyl-4-(((1-phenylethoxy)carbonyl)amino)isoxazol-5-yl)azetidin-1-yl)phenyl)cyclopropane-1-carboxylic acid], the amount remaining at 0.5 h in series [1] and in series [2] was over 75% each time. The IC50 (as a rule, the concentration that inhibits the measured activity by half) fell in the range of 10 to 200 nM on hLPAR1 and 500 to 5000 nM in the series on A2058 cells. Further, at BSEP, the inhibition (as a rule, how much of the control response was suppressed) at 0.25 h, 10 µM lay within 25 to 50%.

On to `Cc1noc(C2CCN(c3ccc(C4(C(=O)NS(C)(=O)=O)CC4)cc3)CC2)c1NC(=O)O[C@H](C)c1ccccc1` [Compound 12], for which the share remaining (usually the share of the starting amount still present when the sample was taken) at 0.5 h is over 75% in series [1] and 50 to 75% in series [2]. Further, the values for the IC50 on hLPAR1 and in the series with A2058 cells were 10 to 200 nM and under 100 nM, respectively. Besides, the inhibition at 0.25 h, 10 µM on BSEP was 25 to 50%.

As for `Cc1noc(C2CCN(c3ccc(C4(C(=O)O)CC4)cc3)CC2)c1NC(=O)O[C@H](C)c1ccccc1` [Compound 87, 1-(4-{4-[3-methyl-4-({[(1R)-1-phenylethoxy]carbonyl}amino)-1,2-oxazol-5-yl]piperidin-1-yl}phenyl)cyclopropane-1-carboxylic acid], the fraction remaining at 0.5 h in series [1] and in series [2] was over 75% throughout. The IC50 at hLPAR1 was under 10 nM; in the series on A2058 cells, under 100 nM. For the same molecule, the inhibition at 0.25 h, 10 µM on BSEP fell in the range of 25 to 50%.

Turning to `Cc1noc(C2CCN(c3ccc(C4(C(=O)NS(=O)(=O)CCCC(=O)O)CC4)cc3)CC2)c1NC(=O)O[C@H](C)c1ccccc1` [Compound 84], the amount remaining at 0.5 h in series [1] is 50 to 75%; in series [2], over 75%. In addition, the results for the IC50 at hLPAR1 and in the series with A2058 cells were under 10 nM and 100 to 500 nM, respectively. In addition, the inhibition at 0.25 h, 10 µM at BSEP was at most 25%.

Consider `CNS(=O)(=O)NC(=O)C1(c2ccc(N3CCC(c4onc(C)c4NC(=O)O[C@H](C)c4ccccc4)CC3)cc2)CC1` [Compound 86], for which the fraction remaining at 0.5 h in series [1] and in series [2] was over 75% each time. The IC50 on hLPAR1 was under 10 nM; with A2058 cells, 100 to 500 nM. On BSEP, the inhibition at 0.25 h, 10 µM is 50 to 75%.

Take `CCc1ccccc1[C@@H](C)OC(=O)Nc1c(C)noc1C1CCN(c2ccc(C3(C(=O)O)CC3)cc2)CC1` [Compound 38, (R)-1-(4-(4-(4-(((1-(2-ethylphenyl)ethoxy)carbonyl)amino)-3-methylisoxazol-5-yl)piperidin-1-yl)phenyl)cyclopropane-1-carboxylic acid]: the fraction remaining at 0.5 h in series [1] is 25 to 50%; in series [2], over 75%. The IC50 was under 10 nM at hLPAR1 and under 100 nM in the series on A2058 cells. In addition, the inhibition at 0.25 h, 10 µM at BSEP fell in the range of 50 to 75%.

On to `Cc1noc(C2CCN(c3ccc(C4(C(=O)NS(=O)(=O)CCCO)CC4)cc3)CC2)c1NC(=O)O[C@H](C)c1ccccc1` [Compound 85], for which the share remaining at 0.5 h in series [1] was over 75%; in series [2], 50 to 75%. Also, the IC50 at hLPAR1 is under 10 nM; in the series on A2058 cells it was under 100 nM. Moreover, at BSEP, the inhibition at 0.25 h, 10 µM was at most 25%.

Turning to `Cc1noc(C2CCN(c3ccc(C4(C(=O)NS(=O)(=O)C(C)(C)C(=O)O)CC4)cc3)CC2)c1NC(=O)O[C@H](C)c1ccccc1` [Compound 67, 2-methyl-2-[[1-[4-[4-[3-methyl-4-[[(1R)-1-phenylethoxy]carbonylamino]isoxazol-5-yl]-1-piperidyl]phenyl]cyclopropanecarbonyl]sulfamoyl]propanoic acid], the amount remaining at 0.5 h in series [1] and in series [2] was over 75% throughout. Further, the IC50 on hLPAR1 is under 10 nM; in the series on A2058 cells, under 100 nM. The inhibition at 0.25 h, 10 µM at BSEP lay in the range of 25 to 50%.

In the case of `Cc1noc(C2CCN(c3ccc(C4(C(=O)NS(=O)(=O)CCC(=O)O)CC4)cc3)CC2)c1NC(=O)O[C@H](C)c1ccccc1` [Compound 83], the amount remaining at 0.5 h in series [1] and in series [2] was over 75% each time. Further, the half-maximal inhibitory concentration (IC50) at hLPAR1 is under 10 nM; with A2058 cells it was under 100 nM. For the same molecule, the inhibition at 0.25 h, 10 µM at BSEP was at most 25%.

Turning to `Cc1noc(C2CCN(c3ccc(C4(c5cc(O)no5)CC4)cc3)CC2)c1NC(=O)O[C@H](C)c1ccccc1` [Compound 64], the share remaining at 0.5 h was 50 to 75% in series [1] and 25 to 50% in series [2]. For the same molecule, the IC50 is under 10 nM on hLPAR1 and under 100 nM in the series with A2058 cells. For the same molecule, on BSEP, the inhibition at 0.25 h, 10 µM was 75 to 100%.

`Cc1nc(C2(C(=O)O)CC2)ccc1N1CCC(c2onc(C)c2NC(=O)O[C@H](C)c2ccccc2)CC1` [Compound 62]: the amount remaining at 0.5 h in series [1] and in series [2] was over 75% each time. For the same molecule, the IC50 on hLPAR1 lay within 10 to 200 nM; in the series on A2058 cells, 100 to 500 nM. Further, the inhibition at 0.25 h, 10 µM at BSEP lay in the range of 25 to 50%.

For `Cc1ccccc1[C@@H](C)OC(=O)Nc1c(C)noc1C1CCN(c2ccc(C3(C(=O)NS(N)(=O)=O)CC3)cc2)CC1` [Compound 35], the fraction remaining at 0.5 h in series [1] is 25 to 50%; in series [2] it was 50 to 75%. For the same molecule, the results for the IC50 at hLPAR1 and in the series with A2058 cells were under 10 nM and under 100 nM, respectively.

With `Cc1nsc(C2CCN(c3ccc(C4(C(=O)NS(=O)(=O)C(F)(F)F)CC4)cc3)CC2)c1NC(=O)O[C@H](C)c1ccccc1` [Compound 94], the amount remaining at 0.5 h in series [1] and in series [2] was 50 to 75% throughout. In addition, the results for the IC50 on hLPAR1 and in the series with A2058 cells were under 10 nM and under 100 nM, respectively. At BSEP, the inhibition at 0.25 h, 10 µM was 75 to 100%.

Consider `Cc1noc(C2CCN(c3ccc(C4(C(=O)O)CC4)cc3)CC2)c1CNC(=O)O[C@@H](C)c1ccccc1` [Compound 25], for which the share remaining at 0.5 h in series [1] and in series [2] was over 75% each time. For the same molecule, the IC50 at hLPAR1 is 10 to 200 nM; with A2058 cells, at least 5000 nM.

As for `Cc1noc(C2CCN(c3ccc(C4(C(=O)O)CC4)cc3)CC2)c1N[C@H](C)CCc1ccccc1` [Compound 22], the amount remaining at 0.5 h in series [1] and in series [2] was 50 to 75% in each case. For the same molecule, the results for the IC50 on hLPAR1 and in the series on A2058 cells were 10 to 200 nM and 100 to 500 nM, respectively.

On to `Cc1noc(C2CCN(c3ccc(C4(C(=O)NS(=O)(=O)CC(=O)O)CC4)cc3)CC2)c1NC(=O)O[C@H](C)c1ccccc1` [Compound 80], for which the share remaining at 0.5 h is over 75% in series [1] and 50 to 75% in series [2]. Further, the figures for the IC50 at hLPAR1 and in the series with A2058 cells were under 10 nM and under 100 nM, respectively. The inhibition at 0.25 h, 10 µM on BSEP was 25 to 50%.
